Measured values as given in US11213030B2, “4-(3,4-dihydronaphth-1-yl or 2H-chromen-4-yl)-5-hydroxy-2H-pyradizin-3-ones as herbicides” (FMC Corporation, priority 2017, dated 2022).

Legend:
Assay type in all cases: in vivo
[1] = test system: pigweed (Amaranthus retroflexus); test: Test A preemergence, pigweed; settings: 0 to 100 scale
Source text: (§1) Seeds of plant species selected from barnyardgrass (Echinochloa crus-galli), kochia (Kochia scoparia), ragweed (common ragweed, Ambrosia elatior), ryegrass, It. (Italian ryegrass, Lolium multiflorum), foxtail, green (green foxtail, Setaria viridis), and pigweed (Amaranthus retroflexus) were planted into a blend of loam soil and sand and treated preemergence with a directed soil spray using test chemicals formulated in a non-phytotoxic solvent mixture which included a surfactant. At the same time, plants selected from these weed species and also wheat (Triticum aestivum), corn (Zea mays), blackgrass (Alopecurus myosuroides), and galium (catchweed bedstraw, Galium aparine) were planted in pots containing the same blend of loam soil and sand and treated with postemergence applications of test chemicals formulated in the same manner. Plants ranged in height from 2 to 10 cm and were in the one- to two-leaf stage for the postemergence treatment. Treated plants and untreated controls were maintained in a greenhouse for approximately 10 d, after which time all treated plants were compared to untreated controls and visually evaluated for injury. Plant response ratings, summarized in Table A, are based on a 0 to 100 scale where 0 is no effect and 100 is complete control. A dash (-) response means no test result.

[2] = test system: galium (catchweed bedstraw, Galium aparine); test: Test A postemergence, galium; settings: 0 to 100 scale
Source text: as §1

[3] = test system: wheat (Triticum aestivum); test: Test A postemergence, wheat; settings: 0 to 100 scale
Source text: as §1

[4] = test system: barnyardgrass (Echinochloa crus-galli); test: Test A preemergence, barnyardgrass; settings: 0 to 100 scale
Source text: as §1

[5] = test system: ragweed (common ragweed, Ambrosia elatior); test: Test A preemergence, ragweed; settings: 0 to 100 scale
Source text: as §1

corn (Zea mays) = test: Test A postemergence, corn; settings: 0 to 100 scale
Source text: as §1

[6] = test system: ryegrass, It. (Italian ryegrass, Lolium multiflorum); test: Test A preemergence, Italian ryegrass; settings: 0 to 100 scale
Source text: as §1

[7] = test system: barnyardgrass (Echinochloa crus-galli); test: Test B flooded paddy test, barnyardgrass; settings: Flood, 250 g ai/ha applied to paddy water, 2-leaf stage, 13 to 15 d; scale of 0 to 100 where 0 is no effect and 100 is complete control
Experimental: (§2) Plant species in the flooded paddy test selected from rice (Oryza sativa), sedge, umbrella (small-flower umbrella sedge, Cyperus difformis), ducksalad (Heteranthera limosa), and barnyardgrass (Echinochloa crus-galli) were grown to the 2-leaf stage for testing. At the time of treatment, test pots were flooded to 3 cm above the soil surface, treated by application of test compounds directly to the paddy water, and then maintained at that water depth for the duration of the test. Treated plants and controls were maintained in a greenhouse for 13 to 15 d, after which time all species were compared to controls and visually evaluated. Plant response ratings, summarized in Table B, are based on a scale of 0 to 100 where 0 is no effect and 100 is complete control. A dash (-) response means no test result.

[8] = test system: blackgrass (Alopecurus myosuroides); test: Test A postemergence, blackgrass; settings: 0 to 100 scale
Source text: as §1

[9] = test system: ragweed (common ragweed, Ambrosia elatior); test: Test A postemergence, ragweed; settings: 0 to 100 scale
Source text: as §1

[10] = test system: foxtail, green (green foxtail, Setaria viridis); test: Test A preemergence, green foxtail; settings: 0 to 100 scale
Source text: as §1

rice (Oryza sativa) = test: Test B flooded paddy test, rice; settings: Flood, 250 g ai/ha applied to paddy water, 2-leaf stage, 13 to 15 d; scale of 0 to 100 where 0 is no effect and 100 is complete control
Experimental: as §2

[11] = test system: sedge, umbrella (small-flower umbrella sedge, Cyperus difformis); test: Test B flooded paddy test, umbrella sedge; settings: Flood, 250 g ai/ha applied to paddy water, 2-leaf stage, 13 to 15 d; scale of 0 to 100 where 0 is no effect and 100 is complete control
Experimental: as §2

kochia (Kochia scoparia) [12] = test: Test A preemergence, kochia; settings: 0 to 100 scale
Source text: as §1

[13] = test system: barnyardgrass (Echinochloa crus-galli); test: Test A postemergence, barnyardgrass; settings: 0 to 100 scale
Source text: as §1

[14] = test system: foxtail, green (green foxtail, Setaria viridis); test: Test A postemergence, green foxtail; settings: 0 to 100 scale
Source text: as §1

[15] = test system: ducksalad (Heteranthera limosa); test: Test B flooded paddy test, ducksalad; settings: Flood, 250 g ai/ha applied to paddy water, 2-leaf stage, 13 to 15 d; scale of 0 to 100 where 0 is no effect and 100 is complete control
Experimental: as §2

kochia (Kochia scoparia) [16] = test: Test A postemergence, kochia; settings: 0 to 100 scale
Source text: as §1

[17] = test system: pigweed (Amaranthus retroflexus); test: Test A postemergence, pigweed; settings: 0 to 100 scale
Source text: as §1

[18] = test system: ryegrass, It. (Italian ryegrass, Lolium multiflorum); test: Test A postemergence, Italian ryegrass; settings: 0 to 100 scale
Source text: as §1

Structure (SMILES)	Plant response rating, Pigweed ([1]; 125 g ai/ha)	Plant response rating, Galium ([2]; 125 g ai/ha)	Plant response rating, Wheat ([3]; 125 g ai/ha)	Plant response rating, Barnyardgrass ([4]; 125 g ai/ha)	Plant response rating, Ragweed ([5]; 125 g ai/ha)	Plant response rating, Corn (corn (Zea mays); 125 g ai/ha)	Plant response rating, Ryegrass, It. ([6]; 125 g ai/ha)	Plant response rating, Barnyardgrass [7]	Plant response rating, Blackgrass ([8]; 125 g ai/ha)	Plant response rating, Ragweed ([9]; 125 g ai/ha)	Plant response rating, Foxtail, Green ([10]; 125 g ai/ha)	Plant response rating, Rice (rice (Oryza sativa))	Plant response rating, Sedge, Umbrella [11]	Plant response rating, Kochia (kochia (Kochia scoparia) [12]; 125 g ai/ha)	Plant response rating, Barnyardgrass ([13]; 125 g ai/ha)	Plant response rating, Foxtail, Green ([14]; 125 g ai/ha)	Plant response rating, Ducksalad [15]	Plant response rating, Kochia (kochia (Kochia scoparia) [16]; 125 g ai/ha)	Plant response rating, Pigweed ([17]; 125 g ai/ha)	Plant response rating, Ryegrass, It. ([18]; 125 g ai/ha)	further results
CC1=C(c2c(O)c(C)nn(C)c2=O)c2ccccc2CC1 [Compound 2, 4-(3,4-dihydro-2-methyl-1-naphthalenyl)-5-hydroxy-2,6-dimethyl-3(2H)-pyridazinone]	0	90	0	0	40	10	40	0	0	80	0	0	0	0	0	10	0	80	80	60	Plant response rating, Pigweed ([1]; 500 g ai/ha): 80; Plant response rating, Galium ([2]; 500 g ai/ha): 100; Plant response rating, Wheat ([3]; 500 g ai/ha): 0; Plant response rating, Barnyardgrass ([4]; 500 g ai/ha): 0; Plant response rating, Ragweed ([5]; 500 g ai/ha): 90; Plant response rating, Corn (corn (Zea mays); 500 g ai/ha): 10; Plant response rating, Ryegrass, It. ([6]; 500 g ai/ha): 50; Plant response rating, Blackgrass ([8]; 500 g ai/ha): 20; Plant response rating, Ragweed ([9]; 500 g ai/ha): 90; Plant response rating, Foxtail, Green ([10]; 500 g ai/ha): 0; Plant response rating, Kochia (kochia (Kochia scoparia) [12]; 500 g ai/ha): 80; Plant response rating, Barnyardgrass ([13]; 500 g ai/ha): 20; Plant response rating, Foxtail, Green ([14]; 500 g ai/ha): 70; Plant response rating, Kochia (kochia (Kochia scoparia) [16]; 500 g ai/ha): 90; Plant response rating, Pigweed ([17]; 500 g ai/ha): 90; Plant response rating, Ryegrass, Italian ([18]; 500 g ai/ha): 100
CC1=C(c2c(O)c(C)nn(C)c2=O)c2ccccc2OC1 [Compound 3, 5-hydroxy-2,6-dimethyl-4-(3-methyl-2H-1-benzopyran-4-yl)-3(2H)-pyridazinone]	10	–	0	0	0	0	0	0	0	60	0	0	50	10	0	0	0	70	80	10	Plant response rating, Pigweed ([1]; 500 g ai/ha): 60; Plant response rating, Wheat ([3]; 500 g ai/ha): 0; Plant response rating, Barnyardgrass ([4]; 500 g ai/ha): 0; Plant response rating, Ragweed ([5]; 500 g ai/ha): 50; Plant response rating, Corn (corn (Zea mays); 500 g ai/ha): 10; Plant response rating, Ryegrass, It. ([6]; 500 g ai/ha): 10; Plant response rating, Blackgrass ([8]; 500 g ai/ha): 10; Plant response rating, Ragweed ([9]; 500 g ai/ha): 90; Plant response rating, Foxtail, Green ([10]; 500 g ai/ha): 0; Plant response rating, Kochia (kochia (Kochia scoparia) [12]; 500 g ai/ha): 30; Plant response rating, Barnyardgrass ([13]; 500 g ai/ha): 10; Plant response rating, Foxtail, Green ([14]; 500 g ai/ha): 20; Plant response rating, Kochia (kochia (Kochia scoparia) [16]; 500 g ai/ha): 90; Plant response rating, Pigweed ([17]; 500 g ai/ha): 100; Plant response rating, Ryegrass, Italian ([18]; 500 g ai/ha): 60
CC(=O)Oc1c(C)nn(C)c(=O)c1C1=C(C)CCc2ccccc21 [Compound 5]	100	90	0	0	80	20	70	0	30	80	0	0	0	10	30	40	0	80	100	80	Plant response rating, Pigweed ([1]; 31 g ai/ha): 20; Plant response rating, Galium ([2]; 31 g ai/ha): 90; Plant response rating, Wheat ([3]; 31 g ai/ha): 0; Plant response rating, Barnyardgrass ([4]; 31 g ai/ha): 20; Plant response rating, Ragweed ([5]; 31 g ai/ha): 20; Plant response rating, Corn (corn (Zea mays); 31 g ai/ha): 20; Plant response rating, Ryegrass, It. ([6]; 31 g ai/ha): 40; Plant response rating, Blackgrass ([8]; 31 g ai/ha): 0; Plant response rating, Ragweed ([9]; 31 g ai/ha): 30; Plant response rating, Foxtail, Green ([10]; 31 g ai/ha): 0; Plant response rating, Kochia (kochia (Kochia scoparia) [12]; 31 g ai/ha): 0; Plant response rating, Barnyardgrass ([13]; 31 g ai/ha): 20; Plant response rating, Foxtail, Green ([14]; 31 g ai/ha): 20; Plant response rating, Kochia (kochia (Kochia scoparia) [16]; 31 g ai/ha): 70; Plant response rating, Pigweed ([17]; 31 g ai/ha): 70; Plant response rating, Ryegrass, It. ([18]; 31 g ai/ha): 70
CC1=C(c2c(O)c(C)nn(C)c2=O)c2cc(C)ccc2CC1 [Compound 4]	0	70	0	0	0	0	0	0	0	20	0	0	0	0	10	20	0	20	70	20	Plant response rating, Pigweed ([1]; 31 g ai/ha): 0; Plant response rating, Galium ([2]; 31 g ai/ha): 40; Plant response rating, Wheat ([3]; 31 g ai/ha): 0; Plant response rating, Barnyardgrass ([4]; 31 g ai/ha): 0; Plant response rating, Ragweed ([5]; 31 g ai/ha): 0; Plant response rating, Corn (corn (Zea mays); 31 g ai/ha): 0; Plant response rating, Ryegrass, It. ([6]; 31 g ai/ha): 0; Plant response rating, Blackgrass ([8]; 31 g ai/ha): 0; Plant response rating, Ragweed ([9]; 31 g ai/ha): 0; Plant response rating, Foxtail, Green ([10]; 31 g ai/ha): 0; Plant response rating, Kochia (kochia (Kochia scoparia) [12]; 31 g ai/ha): 0; Plant response rating, Barnyardgrass ([13]; 31 g ai/ha): 10; Plant response rating, Foxtail, Green ([14]; 31 g ai/ha): 10; Plant response rating, Kochia (kochia (Kochia scoparia) [16]; 31 g ai/ha): 0; Plant response rating, Pigweed ([17]; 31 g ai/ha): 50; Plant response rating, Ryegrass, It. ([18]; 31 g ai/ha): 0
COc1c(C)nn(C)c(=O)c1C1=C(C)CCc2ccccc21 [Compound 1, 4-(3,4-dihydro-2-methyl-1-naphthalenyl)-5-methoxy-2,6-dimethyl-3(2H)-pyridazinone]	–	–	–	–	–	–	–	–	–	–	–	–	–	–	–	–	–	–	–	–	Plant response rating, Pigweed ([1]; 1000 g ai/ha): 60; Plant response rating, Galium ([2]; 1000 g ai/ha): 100; Plant response rating, Wheat ([3]; 1000 g ai/ha): 0; Plant response rating, Barnyardgrass ([4]; 1000 g ai/ha): 80; Plant response rating, Ragweed ([5]; 1000 g ai/ha): 100; Plant response rating, Corn (corn (Zea mays); 1000 g ai/ha): 10; Plant response rating, Ryegrass, It. ([6]; 1000 g ai/ha): 100; Plant response rating, Blackgrass ([8]; 1000 g ai/ha): 70; Plant response rating, Ragweed ([9]; 1000 g ai/ha): 90; Plant response rating, Foxtail, Green ([10]; 1000 g ai/ha): 70; Plant response rating, Kochia (kochia (Kochia scoparia) [12]; 1000 g ai/ha): 70; Plant response rating, Barnyardgrass ([13]; 1000 g ai/ha, 0 no effect, 100 complete control): 60; Plant response rating, Foxtail, Green ([14]; 1000 g ai/ha): 60; Plant response rating, Kochia (kochia (Kochia scoparia) [16]; 1000 g ai/ha): 20; Plant response rating, Pigweed ([17]; 1000 g ai/ha): 80; Plant response rating, Ryegrass, Italian ([18]; 1000 g ai/ha): 90
